According to US6737407B1, “Treatment of obesity” (Metabolic Pharmaceuticals, Ltd., priority 1997, dated 2004):
Where no end group is shown, it is not given here.

Assays:
[1] = test system: Zucker fatty (fa/fa) rats; assay: Chronic treatment of Zucker fatty rats: body weight gain and food consumption; assay type: in vivo, rat; conditions: throughout the treatment period
Procedure: Animals were given a daily intraperitoneal injection of either saline or the peptide (500 μg/kg body weight) (3A) or implanted intradermally with a slow-release tablet (500 μg/day/kg body weight) in the lower quadrant of the abdomen of the animals. The control group was implanted with a placebo tablet in the same manner. Each point represents the mean±SEM of 6 animals.
The treatment for the four groups of animals was as described in FIGS. 3A & 3B. Each point represents the mean±SEM of 6 animals.
The animals of the same age and same sex were randomly divided into two groups, housed 6 per cage and maintained on a normal 12-hr light/dark cycle at a constant room temperature of 25° C. in the animal house of the Department of Biochemistry and—Molecular Biology, Monash University, Clayton, Australia. Animals were fed ad libitum on pre-determined quantity of animal pellets (Clark King, Melboume, Australia) and allowed free access to water at all times. […] The body weight and food intake were monitored for the periods of time as indicated.
Cumulative weight gain and food consumption were determined at 3-day intervals by the measurements of body weight and uneaten food remaining in the cages. […]

[2] = test system: adipose tissues from male Zucker fatty (fa/fa) rats; assay: In vitro glycerol release during lipolysis in isolated adipose tissue; assay type: cell-based, rat; conditions: adipose tissues isolated from obese animals
Procedure: (§1) Adipose tissues were removed from animals and sliced into segments of approximately 200 mg each. Then the tissues were pre-incubated in 25 ml vials containing 2 ml of Krebs-Ringerbicarbonate (KRB) buffer, 4% defatted BSA and 5.5 mM glucose under an atmosphere of carbogen (95%O2/ 5%CO2) at 37° C. for 1 hour. Tissues were then transferred to another vials with fresh medium and the incubation was initiated by adding hGH 177-191 peptide or analogues into the vials. The mixtures were then incubated at 37° C. for 90 minutes. After incubation, the tissues wee removed and aliquots (200 μl) of samples withdrawn from the medium were assayed for the contents of glycerol or free fatty acid (FFA) either by the enzyme assay (glycerol kinase) or calorimetric (copper-dye) spectrometry. The NADH or color produced was then monitored by the absorption at 340 nm and 610 nm, respectively.

[3] = test system: Human Subcutaneous adipose Tissue; assay: Lipolytic activity in human subcutaneous adipose tissue; assay type: cell-based; conditions: 0.5 μM peptide
Procedure: as §1
Tables 6 and 7 show the in vitro antilipogenic and lipolytic activity of hGH 177-191 and two representative analogues (Ref Nos. 9604 and 9605) on human adipose tissue.

hormone-sensitive lipase = assay: Hormone-sensitive lipase (HSL) assay in isolated adipocytes; assay type: cell-based, rat
Procedure: The enzyme was expressed as U/mg protein, where the release of 1 nmole of oleic acid per hour was considered as 1 Unit of enzyme activity.
Hormone-sensitive lipase (HSL) activity of isolated adipocytes was used as a model to evaluate the lipolytic effect of hGH 177-191 peptide and analogues. In this assay [C^14]-triolein was used as a substrate by HSL. The amount of hydrolyzed [C^14]-oleic acid was determined and used as an index of HSL activity.
The adipocytes were prepared from the epididymal fat pads of male Zucker fatty (fa/fa) rats by collagenase digestion. Fat pads (5 g) were finely-cut into small (2-3 mm) pieces and placed in a siliconised glass vial containing 10 ml digestion medium. […] The isolated adipocytes were resuspended with 10 ml collagen-free buffer and the concentration of adipocytes was estimated by counting an aliquot of a pre-determined volume of cells on a microscope slide. […]
The HSL activity was measured at 37° C. for 1 hour in a final volume of 200 μl, containing 10 μmoles phosphate buffer (pH 7.0). […] The [C^14]-radioactivity was measured by a liquid scintillation counter. […] The HSL activity was expressed as U/mg protein, where the release of 1 nmole of oleic acid per hour was defined as 1 U of enzyme activity.

[4] = test system: isolated adipocytes of normal rats; assay: Diacylglycerol (DAG) release from isolated adipocytes; assay type: cell-based, rat
Procedure: FIG. 8 illustrates the in vitro effect of hGH 177-191 on the release of diacylglycerol from isolated adipocytes of normal rats over an incubation period of 40 min. Diacylglycerol was quantitated using radioenzymic assay and the results were expressed as % increase over the basal levels.
Diacylglycerol released from isolated adipose tissue or adipocytes was quantitated using a radioenzymic assay, employing E coli DAG kinase and defined mixed micelle conditions to solubilize DAG and allow its quantitative conversion to [^33p] phosphatidic acid in the presence of [^33p]-γ-ATP.

effect on hormone-sensitive lipase (in words) (hormone-sensitive lipase): effective in stimulating
Sequence: LRIVQCRSVEGSCGF (cysteine pairing not given here) [Ref No. 9401]
food consumption (in words) [1]: unchanged
release of glycerol (in words) [2]: enhanced
Glycerol released [3]: 1000 ± 80 nmol/mg tissue/hour
production/release of diacylglycerol (in words) [4]: activation of the production
